Results taken from US20170240556A1, “BIFLUORODIOXALANE-AMINO-BENZIMIDAZOLE KINASE INHIBITORS FOR THE TREATMENT OF CANCER, AUTOIMMUNEINFLAMMATION AND CNS DISORDERS” (4SC DISCOVERY GMBH, priority 2012, published 2017).

How the values were obtained:
[1] = target: Casein kinase 1 delta (CSKN1D) (Homo sapiens, UniProt P48730); assay: Casein kinase assay, CK1 delta; format: biochemical; conditions: recombinant CSKN1D 5 nM, ATP 10 μM
Protocol: (§1) The recombinant protein Casein kinase 1 delta (CSKN1D) was added to the substrate solution in a concentration of 5 nM and gently mixed. Dilution series in of compounds of the present invention in DMSO were added to the reaction mixture, followed after 20 min by addition of a mixture of ATP and ^33P-ATP (specific activity 0.01 μCi/μl final) to a final concentration of 10 μM. Reactions were carried out at 25° C. for 120 min, followed by spotting the reactions onto P81 ion exchange filter paper. Unbound phosphate was removed by washing of the filters in 0.75% phosphoric acid. […] IC50 values and curve fits were obtained using the program Prism® (Graph Pad Software).

[2] = target: Casein kinase 1 epsilon (CSKN1E) (Homo sapiens, UniProt P49674); assay: Casein kinase assay, CK1 epsilon; format: biochemical; conditions: recombinant CSKN1E 30 nM, ATP 10 μM
Protocol: as §1
The above assay was also used to determine the inhibitory capacity of the compounds of the present invention on Casein Kinase 1 epsilon, wherein instead of CSKN1D, recombinant protein Casein kinase 1 epsilon (CSKN1E) was added to the substrate solution in a concentration of 30 nM and gently mixed.

Sequence of Casein kinase 1 delta (CSKN1D) (P48730 whole entry): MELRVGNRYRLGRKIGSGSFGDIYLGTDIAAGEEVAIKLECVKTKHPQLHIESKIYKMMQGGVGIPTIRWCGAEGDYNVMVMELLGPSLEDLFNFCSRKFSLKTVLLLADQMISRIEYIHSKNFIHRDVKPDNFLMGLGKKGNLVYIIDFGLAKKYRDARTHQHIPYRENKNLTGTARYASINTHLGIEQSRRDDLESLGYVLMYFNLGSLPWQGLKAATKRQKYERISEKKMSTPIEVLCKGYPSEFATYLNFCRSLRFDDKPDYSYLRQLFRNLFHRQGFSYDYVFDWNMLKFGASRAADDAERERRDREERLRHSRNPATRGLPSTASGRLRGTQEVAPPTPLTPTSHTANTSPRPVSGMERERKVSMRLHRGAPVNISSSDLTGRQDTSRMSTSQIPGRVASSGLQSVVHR
Sequence of Casein kinase 1 epsilon (CSKN1E) (P49674 whole entry): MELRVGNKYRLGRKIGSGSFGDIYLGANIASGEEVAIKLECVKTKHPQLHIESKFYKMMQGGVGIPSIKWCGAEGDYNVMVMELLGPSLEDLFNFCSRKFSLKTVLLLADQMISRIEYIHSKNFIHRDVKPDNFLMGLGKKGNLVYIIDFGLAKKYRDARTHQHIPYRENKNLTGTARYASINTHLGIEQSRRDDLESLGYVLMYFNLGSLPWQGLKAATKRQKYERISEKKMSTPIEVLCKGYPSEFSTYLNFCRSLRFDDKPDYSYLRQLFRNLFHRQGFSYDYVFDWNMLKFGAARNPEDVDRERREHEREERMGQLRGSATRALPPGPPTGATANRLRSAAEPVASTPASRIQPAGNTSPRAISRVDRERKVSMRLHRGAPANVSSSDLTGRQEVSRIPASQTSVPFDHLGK

SMILES | IC50 [1] | IC50 [2]
Cc1nn(-c2ccc(Cl)c(Cl)c2)c(C)c1C(=O)Nc1nc2cc3c(cc2[nH]1)OC(F)(F)O3 [Compound 14, 1-(3,4-dichlorophenyl)-N-(2,2-difluoro-5H-[1,3]dioxolo[4′,5′:4,5]benzo[1,2-d]imidazol-6-yl)-3,5-dimethyl-1H-pyrazole-4-carboxamide] | > 1000 nM | > 1000 nM
Cc1nn(-c2ccccc2)c(C)c1C(=O)Nc1nc2cc3c(cc2[nH]1)OC(F)(F)O3 [Compound 15, N-(2,2-difluoro-5H-[1,3]dioxolo[4′,5′:4,5]benzo[1,2-d]imidazol-6-yl)-3,5-dimethyl-1-phenyl-1H-pyrazole-4-carboxamide] | > 1000 nM | > 1000 nM
O=C(Nc1nc2cc3c(cc2[nH]1)OC(F)(F)O3)c1cn(-c2ccccc2)nc1C(F)(F)F [Compound 16, N-(2,2-difluoro-5H-[1,3]dioxolo[4′,5′:4,5]benzo[1,2-d]imidazol-6-yl)-1-phenyl-3-(trifluoromethyl)-1H-pyrazole-4-carboxamide] | 200 to 1000 nM | 200 to 1000 nM
O=C(O)c1cccc(C(=O)Nc2nc3cc4c(cc3[nH]2)OC(F)(F)O4)c1 [Compound 18B, 3-((2,2-Difluoro-5H-[1,3]dioxolo[4′,5′:4,5]benzo[1,2-d]imidazol-6-yl)carbamoyl)benzoic acid] | 200 to 1000 nM | 200 to 1000 nM
Cn1cccc1C(=O)Nc1nc2cc3c(cc2[nH]1)OC(F)(F)O3 [Compound 20B, N-(2,2-Difluoro-5H-[1,3]dioxolo[4′,5′:4,5]benzo[1,2-d]imidazol-6-yl)-1-methyl-1H-pyrrole-2-carboxamide] | 200 to 1000 nM | > 1000 nM
Nc1ncc(Br)nc1C(=O)Nc1nc2cc3c(cc2[nH]1)OC(F)(F)O3 [Compound 22, 2-amino-6-bromo-N-(2,2-difluoro-5H-[1,3]dioxolo[4′,5′:4,5]benzo[1,2-d]imidazol-6-yl)pyrazine-2-carboxamide] | 200 to 1000 nM | > 1000 nM
O=C(Nc1nc2cc3c(cc2[nH]1)OC(F)(F)O3)c1csc(Nc2ccc(OC(F)(F)F)cc2)n1 [Compound 23, N-(2,2-difluoro-5H-[1,3]dioxolo[4′,5′:4,5]benzo[1,2-d]imidazol-6-yl)-2-((4-(trifluoromethoxy)phenyl)amino)thiazole-4-carboxamide] | > 1000 nM | > 1000 nM
O=C(Nc1nc2cc3c(cc2[nH]1)OC(F)(F)O3)c1coc(N2CCOCC2)n1 [Compound 24, N-(2,2-difluoro-5H-[1,3]dioxolo[4′,5′:4,5]benzo[1,2-d]imidazol-6-yl)-2-morpholinooxazole-4-carboxamide] | 200 to 1000 nM | 200 to 1000 nM
Cc1cc(C(F)(F)F)nc(Nc2nc(C(=O)Nc3nc4cc5c(cc4[nH]3)OC(F)(F)O5)cs2)n1 [Compound 25, N-(2,2-difluoro-5H-[1,3]dioxolo[4′,5′:4,5]benzo[1,2-d]imidazol-6-yl)-2-((4-methyl-6-(trifluoromethyl)pyrimidin-2-yl)amino)thiazole-4-carboxamide] | > 1000 nM | > 1000 nM
Cc1cc(C(=O)Nc2nc3cc4c(cc3[nH]2)OC(F)(F)O4)c(C)s1 [Compound 28, N-(2,2-difluoro-5H-[1,3]dioxolo[4′,5′:4,5]benzo[1,2-d]imidazole-6-yl)-2,5-dimethylthiophene-3-carboxamide] | 200 to 1000 nM | 200 to 1000 nM

Second part, the compound after the results:

IC50 [1] | IC50 [2] | SMILES
< 200 nM | < 200 nM | O=C(Nc1nc2cc3c(cc2[nH]1)OC(F)(F)O3)c1csc(NC(=O)c2ccco2)n1 [Compound 11, N-(2,2-difluoro-5H-[1,3]dioxolo[4′,5′:4,5]benzo[1,2-d]imidazol-6-yl)-2-(furan-2-carboxamido)thiazole-4-carboxamide]
200 to 1000 nM | > 1000 nM | COc1ccccc1C(=O)Nc1nc(C(=O)Nc2nc3cc4c(cc3[nH]2)OC(F)(F)O4)co1 [Compound 12, N-(2,2-difluoro-5H-[1,3]dioxolo[4′,5′:4,5]benzo[1,2-d]imidazol-6-yl)-2-(2-methoxybenzamido)oxazole-4-carboxamide]
< 200 nM | 200 to 1000 nM | Nc1c[nH]c(C(=O)Nc2nc3cc4c(cc3[nH]2)OC(F)(F)O4)c1 [Compound 15B, 4-Amino-N-(2,2-difluoro-5H-[1,3]dioxolo[4′,5′:4,5]benzo[1,2-d]imidazol-6-yl)-1H-pyrrole-2-carboxamide]
< 200 nM | < 200 nM | O=C(Nc1nc2cc3c(cc2[nH]1)OC(F)(F)O3)c1nsc(NC(=O)c2ccccc2OC(F)(F)F)n1 [Compound 17, N-(2,2-difluoro-5H-[1,3]dioxolo[4′,5′:4,5]benzo[1,2-d]imidazol-6-yl)-5-(2-(trifluoromethoxy)benzamido)-1,2,4-thiadiazole-3-carboxamide]
< 200 nM | 200 to 1000 nM | O=C(Nc1nc2cc3c(cc2[nH]1)OC(F)(F)O3)c1csc(-c2cccc(Cl)c2)n1 [Compound 17B, 2-(3-chlorophenyl)-N-(2,2-difluoro-5H-[1,3]dioxolo[4′,5′:4,5]benzo[1,2-d]imidazol-6-yl)thiazole-4-carboxamide]
< 200 nM | 200 to 1000 nM | O=C(Nc1nc2cc3c(cc2[nH]1)OC(F)(F)O3)c1ccncc1 [Compound 18, N-(2,2-difluoro-5H-[1,3]dioxolo[4′,5′:4,5]benzo[1,2-d]imidazol-6-yl)isonicotinamide]
< 200 nM | < 200 nM | COc1ccc(OC)c(S(=O)(=O)Nc2nc(C(=O)Nc3nc4cc5c(cc4[nH]3)OC(F)(F)O5)cs2)c1 [Compound 19, N-(2,2-difluoro-5H-[1,3]dioxolo[4′,5′:4,5]benzo[1,2-d]imidazol-6-yl)-2-(2,5-dimethoxyphenylsulfonamido)thiazole-4-carboxamide]
< 200 nM | 200 to 1000 nM | O=C(Nc1nc2cc3c(cc2[nH]1)OC(F)(F)O3)c1ccsc1 [Compound 20, N-(2,2-difluoro-5H-[1,3]dioxolo[4′,5′:4,5]benzo[1,2-d]imidazol-6-yl)thiophene-3-carboxamide]
< 200 nM | < 200 nM | O=C(Nc1nc(C(=O)Nc2nc3cc4c(cc3[nH]2)OC(F)(F)O4)cs1)c1ccncc1 [Compound 21, N-(2,2-difluoro-5H-[1,3]dioxolo[4′,5′:4,5]benzo[1,2-d]imidazol-6-yl)-2-(isonicotinamido)thiazole-4-carboxamide]
< 200 nM | < 200 nM | O=C(Nc1nc(C(=O)Nc2nc3cc4c(cc3[nH]2)OC(F)(F)O4)cs1)Nc1ccccc1OC(F)(F)F [Compound 26, N-(2,2-difluoro-5H-[1,3]dioxolo[4′,5′:4,5]benzo[1,2-d]imidazol-6-yl)-2-(3-(2-(trifluoromethoxy)phenyl)ureido)thiazole-4-carboxamide]
< 200 nM | < 200 nM | O=C(Nc1nc2cc3c(cc2[nH]1)OC(F)(F)O3)c1csc(Br)c1 [Compound 29, 5-bromo-N-(2,2-difluoro-5H-[1,3]dioxolo[4′,5′:4,5]benzo[1,2-d]imidazole-6-yl)-thiophene-3-carboxamide]
< 200 nM | < 200 nM | O=C(Nc1nc2cc3c(cc2[nH]1)OC(F)(F)O3)c1csc([N+](=O)[O-])c1 [Compound 30, N-(2,2-difluoro-5H-[1,3]dioxolo[4′,5′:4,5]benzo[1,2-d]imidazole-6-yl)-5-nitrothiophene-3-carboxamide]
